Where “and” joins values, the source holds several entries; their conditions need not be identical. Equal entries are not always repeated.
Assays:
Assay type in all cases: biochemical
Conditions in all cases: 1.5 mg/ml
human thrombin = target: T1, human thrombin (Homo sapiens, UniProt P00734); experiment: Thrombin time (plasma clotting time with added thrombin)
T1 construct: 50 μl of 0.5 U thrombin (Sigma Co., USA); purchased Sigma Co., USA
Experimental: (§1) The blood clotting inhibitory activity (thrombus formation inhibitory activity) of each of the wasp extracts prepared in Example 1 was evaluated by measuring the thrombin time, the prothrombin time and the aPTT time in the same manner as a previously reported method (Sohn et al., 2004. Kor. J. Pharmacogn 35. 52-61; Kwon et al., 2004. J. Life Science, 14. 509-513; Ryu et al., 2010. J. Life Science, 20. 922-928). As plasma, control plasma (MD Pacific Technology Co., Ltd., Huayuan Industrial Area, China) was used. The thrombin time, the prothrombin time and the aPTT time were measured by the following methods.
50 μl of 0.5 U thrombin (Sigma Co., USA), 50 μl of 20 mM CaCl2) and 10 μl of each sample extract at various concentrations were mixed in a tube of Amelung coagulometer KC-1A (Japan) at 37° C. and allowed to react for 2 minutes, and then 100 μl of plasma was added thereto and the time taken for the plasma to clot was measured. As a control, aspirin (Sigma Co., USA) was used, and a solvent control, DMSO was used instead of the sample. […] The thrombin inhibitory effect was expressed as the average of three or more repeated experiments, and the thrombin inhibitory activity was expressed as the value obtained by dividing the clotting time after sample addition by the clotting time of the solvent control.

prothrombin = experiment: Prothrombin time (plasma clotting time with PT reagent)
Experimental: as §1
70 μl of standard plasma (MD Pacific Co., China) and 10 μl of each sample extract at various concentrations were added to a tube of Amelung coagulometer KC-1A (Japan) and warmed at 37° C. for 3 minutes, and then 130 μl of PT reagent was added thereto. The time taken for the plasma to clot was expressed as the average of three repeated experiments. […] The prothrombin inhibitory activity was expressed as the value obtained by dividing the clotting time after sample addition by the clotting time of the solvent control.

blood clotting factors = experiment: Activated partial thromboplastin time (aPTT)
Experimental: as §1
Activated Partial Thromboplastin Time (aPTT)
100 μl of plasma and 10 μl of each sample extract at various concentrations were added to a tube of Amelung coagulometer KC-1A (Japan) and warmed at 37° C. for 3 minutes, and then 50 μl of aPTT reagent (Sigma, ALEXIN™) was added thereto, followed by incubation at 37° C. for 3 minutes. Thereafter, 50 μl of CaCl2) (35 mM) was added thereto, and then the time taken for the plasma to clot was measured. […] The aPTT was expressed as the average of three repeated experiments, and the blood clotting inhibitory activity was expressed as the value obtained by dividing the aPTT after sample addition by the aPTT of the solvent control.

Compound: CC(=O)Oc1ccccc1C(=O)O [Aspirin]
- Thrombin time (blood clotting time after sample addition/blood clotting time after solvent addition) (human thrombin; Table 2): 1.54 and 1.54 ± 0.11
- Thrombin time (blood clotting time after sample addition/blood clotting time after solvent addition) (human thrombin; Table 4): 1.43 ± 0.04
- Prothrombin time (blood clotting time after sample addition/blood clotting time after solvent addition) (prothrombin; Table 2): 1.44 and 1.44 ± 0.04
- Prothrombin time (blood clotting time after sample addition/blood clotting time after solvent addition) (prothrombin; Table 4): 1.73 ± 0.01
- Blood clotting factor inhibition time (aPTT time) (sample/solvent) (blood clotting factors; Table 2): 1.55 and 1.55 ± 0.07
- Blood clotting factor inhibition time (aPT time) (sample/solvent) (blood clotting factors; Table 4): 1.42 ± 0.03

Reference: US20230038188A1 (priority 2021, published 2023)
